Values quoted from earlier work, collected in patent publication US20220395489A1, “THERAPEUTIC APPROACH FOR TREATING INFLAMMATORY BOWEL DISEASE” (THE REGENTS OF THE UNIVERSITY OF CALIFORNIA, priority 2019, published 2022).
Non-standard residues stand in square brackets, D forms with d. Residues, ends and D or L forms follow the SMILES beside them. *: point of attachment. Sta = CC(C)C[C@H](N)[C@@H](O)CC(=O)O; Isovaleryl = CC(C)CC(=O)*

Experiments:
[1] = water
[2] = low pH values, compared with PMSF

Row | SMILES | solubility [1] | stability [2] | ability to inhibit pepsin (pepsin)
1 | Cl.NCCc1ccc(S(=O)(=O)F)cc1 [AEBSF, 4-(2-aminoethyl)benzenesulfonyl fluoride hydrochloride] | water-soluble | more stable | –
2 | CC(C)CC(=O)N[C@H](C(=O)N[C@H](C(=O)N[C@@H](CC(C)C)[C@@H](O)CC(=O)N[C@@H](C)C(=O)N[C@@H](CC(C)C)[C@@H](O)CC(=O)O)C(C)C)C(C)C [Pepstatin, Isovaleryl-Val-Val-Sta-Ala-Sta] (Isovaleryl-VV[Sta]A[Sta]-OH) | – | – | picomolar concentrations
